Data taken from patent publication US20250248965A1, “HEXAHYDRONAPHTHALEN-2-ONE DERIVATIVES FOR USE AGAINST A CORONAVIRUS INFECTION” (TÁMOGATOTT KUTATÓCSOPORTOK IRODÁJA, priority 2021, published 2025).

Tests used:
Type in all cases: cell-based
[1] = Alamar Blue cell viability (cytotoxicity) assay; details: African green monkey, Vero E6 host cells
Method: (§1) Compounds to be tested were dissolved in DMSO at 20 mM concentration and stored at −20° C. Stock solutions were diluted with DMEM medium to result 100 μM concentration. The DMSO content was 0.5% in the highest concentration containing wells.
(§2) In vitro cytotoxicity testing of the compounds was performed by the Alamar Blue cell viability assay. Briefly, Vero E6 cells were plated in a 96-well flat bottom tissue culture plates in 10% FBS containing DMEM media (5000 cells/100 μL) one day prior to experiment. Before the test, 50 μL supernatant was removed and replaced with 50 μL DMEM serum free (SFM) medium. […] Two days after, 20 μL Alamar Blue (resazurin sodium salt, Merck) solution (0.15 mg/mL in PBS, filtered […] Merck) was added to each well and after 3-3.5 hrs of incubation the fluorescence was measured at λEx=530/30 and at λEM=610/10 nm using a Synergy H4 multi-mode microplate reader (BioTek). All measurements were performed in quadruplets and the mean IC50 values together with SEM were represented on the graphs.

Vero E6 cells = test: Alamar Blue cell viability (cytotoxicity) assay; details: 48 hrs
Method: as §1, §2

SARS-CoV-2 [2] = test: Viral copy number by RT-qPCR from supernatant; details: supernatant of infected Vero E6 cells
SARS-CoV-2 [3] = details: SARS-CoV-2 infected Vero E6 cells, 48 hours of incubation

CCN(CC)CCCC(C)Nc1ccnc2cc(Cl)ccc12 (stereo not drawn) [Chloroquine]
IC50 at 48 h [1]: 34 µM

CC(=O)Oc1ccccc1C(=O)Nc1ncc([N+](=O)[O-])s1 [Nitazoxanide]
toxicity on the host cells (Vero E6 cells; range up to 100 μM): around 35%

C=C(C)[C@@H]1C[C@@]2(C)C(=CC1=O)CC[C@@H](O)[C@@H]2C [Petasol, (3S,4aR,5R,6R)-6-hydroxy-4a,5-dimethyl-3-prop-1-en-2-yl-3,4,5,6,7,8-hexahydronaphthalen-2-one]
in vitro cytotoxicity (not cytotoxic up to) (Vero E6 cells; Vero E6 host cells): > 100 µM | viral RNA copy numbers (antiviral effect) (SARS-CoV-2 [2]): high similarity with the TCID50 values

CC(C)=C1C[C@@]2(C)C(=CC1=O)CC[C@@H](O)[C@@H]2C [isopetasol, (4aR,5R,6R)-6-hydroxy-4a,5-dimethyl-3-propan-2-ylidene-5,6,7,8-tetrahydro-4H-naphthalen-2-one]
antiviral effect (virus-induced CPE, TCID50/mL) (SARS-CoV-2 [3]): markedly different than petasol

C=C(C)[C@H]1C[C@@]2(C)C(=CC1=O)CC[C@@H](O)[C@@H]2C [neopetasol, (3R,4aR,5R,6R)-6-hydroxy-4a,5-dimethyl-3-prop-1-en-2-yl-3,4,5,6,7,8-hexahydronaphthalen-2-one]
antiviral effect (virus-induced CPE, TCID50/mL) (SARS-CoV-2 [3]): markedly different than petasol
